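In this assay, cells in 96-well plates receive the compound at five concentrations for 48 hours. Endpoints are linearly interpolated between the surrounding concentrations. TGI: total growth inhibition.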
Assays:
Test in all cases: growth of human tumour cells (NCI), 48 h
[1] = system: HS 578T breast
[2] = system: RXF 393 renal
[3] = system: HL-60(TB) leukemia
[4] = system: RPMI-8226 leukemia
[5] = system: SK-MEL-5 melanoma
[6] = system: SNB-75 CNS
[7] = system: LOX IMVI melanoma
[8] = system: SK-OV-3 ovarian
[9] = system: NCI-H226 lung
[10] = system: MCF7 breast
[11] = system: CAKI-1 renal
[12] = system: ACHN renal
[13] = system: M14 melanoma
[14] = system: PC-3 prostate
[15] = system: UACC-62 melanoma
[16] = system: SF-539 CNS
[17] = system: SN12C renal
[18] = system: OVCAR-8 ovarian
[19] = system: HCT-15 colon
[20] = system: SF-268 CNS
[21] = system: U251 CNS
[22] = system: HT29 colon
[23] = system: OVCAR-5 ovarian
[24] = system: HCT-116 colon
[25] = system: UO-31 renal
[26] = system: BT-549 breast
[27] = system: SW-620 colon
[28] = system: CCRF-CEM leukemia
[29] = system: EKVX NSCLC
[30] = system: HOP-62 NSCLC
[31] = system: A498 renal
[32] = system: IGROV1 ovarian
[33] = system: SF-295 CNS
[34] = system: MDA-MB-231 breast
[35] = system: A549 NSCLC
[36] = system: UACC-257 melanoma
[37] = system: OVCAR-3 ovarian
[38] = system: TK-10 renal
[39] = system: K-562 leukemia
[40] = system: MDA-MB-435
[41] = system: NCI-H23 lung
[42] = system: MOLT-4 leukemia
[43] = system: KM12 colon
[44] = system: NCI-H460 lung
[45] = system: HCC-2998 colon
[46] = system: MDA-N
[47] = system: SR leukemia
[48] = system: DU-145 prostate
[49] = system: OVCAR-4 ovarian
[50] = system: COLO 205 colon
[51] = system: SK-MEL-28 melanoma
[52] = system: SNB-19 CNS
[53] = system: NCI/ADR-RES ovarian
[54] = system: 786-0 renal
[55] = system: MALME-3M melanoma

Measured: TGI

CCOC(=O)CC(=O)NC1CC2CCC1(C)C2(C)C (stereo not given)
> 100 µM: all assays above
